Columns and labels:
[1] = tested on: PND5 rat cultures; test: Post natal day 5 rat cortical/subventricular zone cultures, immunostaining; assay type: cell-based
Experimental: The method of the invention is also exemplified by a second embodiment in which N-[4-[(4-fluorophenyl)sulfonyl]phenyl]acetamide is administered in vitro to tissue from postnatal mammals. Treatment with N-[4-[(4-fluorophenyl)sulfonyl]phenyl]acetamide results in neuroregeneration as evidenced by immunostaining for beta-tubulin, eNCAM and MAP II. Neural tissue harvested from Post Natal day 5 (PND5) animals can be prepared in culture by the method above used with E18 cells, except that the cultures are not treated with glutamate because the neurons are unable to survive the culture preparation step. Using an assay system, cells can be treated with N-[4-[(4-fluorophenyl)sulfonyl]phenyl]acetamide 24 hours after the cultures are established.
In one study, PND-5 day cultures generated from tissue isolated specifically from the subventricular zone were compared to cultures generated from the whole cortex. Twenty four hours after dissection, cultures were treated with the compound. Four weeks after treatment, cultures were immunostained with antibodies against β-tubulin or antibodies against MAP II.
Post natal day 5 rat pups (Taconic Labs) were decapitated, skin covering the cranium was removed so the bone over top the brain could be opened. Using a sterile spatula, the brain was extracted from the opened cranium and transferred to a 60 mm petri dish (Corning) containing sterile, ice cold Hank's balanced salt solution (HBSS). The meningial tissue was removed from the cortex, the cortex was gently teased away from the subcortical structures and transferred to a new 60 mm petri dish containing ice cold HBSS. Using a pair of fine, curved forceps, the desired cortical material was pinched from the remainder of the cortex and transferred to a new 60 mm petri dish containing ice cold HBSS. For most experiments, only tissue in the immediate vicinity of the subventricular zone was collected while in a few experiments, almost the entire cortex was pinched leaving only the outer most layer of cortical tissue behind. After harvesting all cortical tissue, the tissue was minced using two #11 scalpel blades that were repeatedly drawn across each other. After the majority of the tissue was minced into approximately 1 mm cubes, the HBSS was removed and replaced with 4 ml of trypsin/EDTA (Gibco—0.5%/5.3 mM) plus 1 ml of DNase (Sigma—0.01%). The petri dish containing tissue and enzymes were placed in a 37° C. incubator for 30 minutes and agitated every 5 minutes. After 30 minutes, the tissue was removed from the incubator and 1 ml 0.1 mg/ml of soybean trypsin inhibitor was added. Tissue was transferred to a 15 ml conical tube, spun at 500×g for 10 minutes in a refrigerated centrifuge. Supernatant was removed, the pellet was resuspended in 10 ml of DMEM+10% FBS, passed first through a 100 μm filter (Falcon) and finally through a 40 μm filter (Falcon). A cell count was performed to determine the final volume of media needed to yield a cell density of 1×10^6 viable cells per ml. Five hundred microliters of supernatant containing 5×10^5 viable cells was added to each well of 24 well cluster plates previously coated with 5 μg/ml poly lysine.
To remove the cellular debris, all plates were washed 24 hours after plating. Each plate was gently rocked several times, the media was removed and replaced with 1 ml of 37° C. DMEM. […]

[2] = tested on: bone marrow cells; test: Nestin expression in bone marrow cells after systemic administration; assay type: in vivo, rat; conditions: bone marrow harvested 3-7 days after systemic administration; vs non-treated rats
From the text: In some embodiments of the invention, cells, preferably bone marrow cells, can be transferred from a first animal treated according to methods of the invention to a site of chronic spinal cord injury in the first animal or in a second animal.

[3] = study of subventricular zone vs whole cortex cultures, four weeks after treatment

In the case of `CC(=O)Nc1ccc(S(=O)(=O)c2ccc(F)cc2)cc1` [N-[4-[(4-fluorophenyl)sulfonyl]phenyl]acetamide], the “number of β-tubulin positive cells” value ([1]; four weeks post treatment, vs untreated control wells) is reported as “increased numbers of β-tubulin positive cells”, the eNCAM expression ([1]; one week post treatment, vs untreated control samples) is reported as “Enhanced expression of eNCAM” and the MAP-II expression ([1]; six weeks post treatment, vs untreated control samples) is reported as “MAP-II expression is enhanced”. The “number of MAP II positive cells” value [1, 3] was “Greater numbers”, the “number of β-tubulin positive cells” value [1, 3] was “Greater numbers” and the “expression of Nestin in bone marrow cells” value [2] was “increased expression of Nestin”.

From US7271187B2, “Compositions and methods for promoting tissue regeneration” (priority 2000, dated 2007)
